For eight compounds, EC50 results are on record in patent US20120045393A1 (priority 2009, published 2012).

This test concerns LHRH binding sites on human ovarian cancer cells (EFO-27).
Setting [1] is: EFO-27 cells, competition with [125I-Tyr8]BRU-2477, 90 min.

pEC50: −log10 of the molar value. Where two headings read alike, the source gives them in different places. Starred links: 1 amine or outer side, 2 acyl side, 3 side chain; linkers in the order of their positions; H or OH if unused. Non-standard residues stand in square brackets, D forms with d. Residues, ends and D or L forms follow the SMILES beside them. *: point of attachment. DOTA = O=C(O)CN1CCN(CC(=O)O)CCN(CC(=O)*)CCN(CC(=O)O)CC1; Bpa = N[C@@H](Cc1ccc(C(=O)c2ccccc2)cc1)C(=O)O; d2Nal = N[C@H](Cc1ccc2ccccc2c1)C(=O)O; X2 = O=C(N(N[*:1])c1ccccn1)[*:2]; NHPh = c1ccc(N*)cc1; azaGly = NNC(=O)O
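Note: Cell-associated radioactivity on confluent EFO-27 monolayers in 96-well plates, measured by microplate scintillation counting.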

`N=C(N)NCCC[C@H](NC(=O)[C@@H](Cc1ccc2ccccc2c1)NC(=O)CN1CCN(CC(=O)O)CCN(CC(=O)O)CCN(CC(=O)O)CC1)C(=O)N[C@@H](Cc1c[nH]c2ccccc12)C(=O)N[C@@H](CO)C(=O)N[C@@H](Cc1c[nH]cn1)C(=O)N[C@H](CCCNC(=N)N)C(=O)N[C@@H](Cc1c[nH]c2ccccc12)C(=O)N[C@@H](Cc1ccc(C(=O)c2ccccc2)cc1)C(=O)N1CCC[C@H]1C(=O)NCC(=O)NN(C(=O)Nc1ccccc1)c1ccccn1` [compound 2989] ({DOTA}-[d2Nal]RWSH[dR]W[Bpa]PG[X2]-NHPh): under setting [1], the negative logarithm of the EC50 (pEC50) – broadly, the negative decadic logarithm of the EC50, by convention in mol/L – is 5.95.
Still for that read-out and setting: the same measure for `N=C(N)NCCC[C@H](NC(=O)[C@H](Cc1ccc2ccccc2c1)NC(=O)CN1CCN(CC(=O)O)CCN(CC(=O)O)CCN(CC(=O)O)CC1)C(=O)N[C@@H](Cc1c[nH]c2ccccc12)C(=O)N[C@@H](CO)C(=O)N[C@@H](Cc1c[nH]cn1)C(=O)N[C@H](CCCNC(=N)N)C(=O)N[C@@H](Cc1c[nH]c2ccccc12)C(=O)N[C@@H](Cc1ccc(C(=O)c2ccccc2)cc1)C(=O)N1CCC[C@H]1C(=O)NNC(N)=O` [BRU-3051]: 6.21.
Take `C[C@H](NC(=O)[C@H](CO)NC(=O)[C@H](Cc1c[nH]c2ccccc12)NC(=O)[C@H](CCCNC(=N)N)NC(=O)[C@@H](Cc1ccc2ccccc2c1)NC(=O)CN1CCN(CC(=O)O)CCN(CC(=O)O)CCN(CC(=O)O)CC1)C(=O)N[C@H](CCCNC(=N)N)C(=O)N[C@@H](Cc1c[nH]c2ccccc12)C(=O)N[C@@H](Cc1ccc(C(=O)c2ccccc2)cc1)C(=O)N1CCC[C@H]1C(=O)NNC(N)=O` [compound 3028] ({DOTA}-[d2Nal]RWSA[dR]W[Bpa]P[azaGly]-NH2): the pEC50 is 5.96.
Same read-out and setting: the same measure for `CN(CC(=O)N[C@@H](Cc1c[nH]cn1)C(=O)N[C@@H](Cc1c[nH]c2ccccc12)C(=O)N[C@@H](CO)C(=O)N[C@@H](Cc1c[nH]cn1)C(=O)N[C@H](CCCNC(=N)N)C(=O)N[C@@H](Cc1c[nH]c2ccccc12)C(=O)N[C@@H](Cc1ccc2ccccc2c1)C(=O)N1CCC[C@H]1C(=O)NNC(N)=O)C(=O)CN1CCN(CC(=O)O)CCN(CC(=O)O)CCN(CC(=O)O)CC1` [BRU-2624]: 5.70.
Compound `CN(CC(=O)N[C@@H](Cc1c[nH]cn1)C(=O)N[C@@H](Cc1c[nH]c2ccccc12)C(=O)N[C@@H](CO)C(=O)N[C@@H](Cc1c[nH]cn1)C(=O)N[C@H](CCCNC(=N)N)C(=O)N[C@@H](Cc1c[nH]c2ccccc12)C(=O)N[C@@H](Cc1ccc(C(=O)c2ccccc2)cc1)C(=O)N1CCC[C@H]1C(=O)NNC(N)=O)C(=O)CN1CCN(CC(=O)O)CCN(CC(=O)O)CCN(CC(=O)O)CC1` [BRU-2443] showed a pEC50 under setting [1] of 6.02.
Where the note is “Table 19: analogs used in the stabilization studies”, “BRU-2994: DO3A10CM-Dnal2-R-W-S-H-r-W-Bpa4-Flp4-azaG” gave a pEC50 of 6.22. Besides, the half-maximal effective concentration (EC50) (commonly the concentration giving half of the maximal effect) (read-out: EC50 μM, Underivatized LHRH peptides and LHRH peptides with chelator on N-terminus, EFO-27 cells) was determined as 0.6 µM.
The compound `COCCN(CC(=O)N[C@@H](Cc1c[nH]cn1)C(=O)N[C@@H](Cc1c[nH]c2ccccc12)C(=O)N[C@@H](CO)C(=O)N[C@@H](Cc1c[nH]cn1)C(=O)N[C@H](CCCNC(=N)N)C(=O)N[C@@H](Cc1c[nH]c2ccccc12)C(=O)N[C@@H](Cc1ccc(C(=O)c2ccccc2)cc1)C(=O)N1CCC[C@H]1C(=O)NNC(N)=O)C(=O)CNC(=O)CN1CCN(CC(=O)O)CCN(CC(=O)O)CCN(CC(=O)O)CC1` [compound 2796] gave a pEC50 (Table 8: N-substituted amino acid at position 1 and Gly as linker, in vitro binding on EFO-27 cells) of 6.47.
The compound `CN(CC(=O)N[C@@H](Cc1c[nH]cn1)C(=O)N[C@@H](Cc1c[nH]c2ccccc12)C(=O)N[C@@H](CO)C(=O)N[C@@H](Cc1c[nH]cn1)C(=O)N[C@H](CCCNC(=N)N)C(=O)N[C@@H](Cc1c[nH]c2ccccc12)C(=O)N[C@@H](Cc1ccc(C(=O)c2ccccc2)cc1)C(=O)N1CCC[C@H]1C(=O)NNC(N)=O)C(=O)c1ccc(CNC(=O)CN2CCN(CC(=O)O)CCN(CC(=O)O)CCN(CC(=O)O)CC2)cc1` [compound 2727] showed a negative-log EC50 (pEC50) of 6.19.
